Experiments:
RAW264.7 macrophages = experiment: LPS- and lipid aldehyde-induced signaling in RAW264.7 macrophages; type: cell-based; parameters: HNE and protein-HNE adduct levels: dose or concentration left out as unconfirmed
Method: At the indicated times, cells were harvested for measurement of HNE (FIG. 5A), protein-HNE adducts (FIG. 5B), NF-kB (FIG. 5C), and TNF-a and IL-6 (FIG. 5D) as described in the methods. Cells were growth arrested as described above or transfected with control or AR siRNA oligonucleotides, incubated with GS-HNE-ester, or GS-DHN-ester (1 mM), and harvested for determination of NF-kB (FIG. 5E), membrane-bound total PKC (FIG. 5F).
To determine if GS-DHN serves as a cellular sensor of ROS-induced insults, its effects on phosphorylation events upstream of IKK/NF-κB activation in RAW264.7 macrophages was examined.

C57BL/6 mice = experiment: LPS signaling in the heart (NF-kB, AP1, iNOS, kinases); type: in vivo, mouse
From the text: At the indicated times, NF-kB activation (FIG. 8A), AP1 activation with an electrophoretic mobility shift assay (FIG. 8B), iNOS expression by western blotting (FIG. 8C), or PKC activation with a total PKC assay system (FIG. 8D) (SignaTect, Promega), or phosphorylated forms of the indicated kinases by western blotting (FIG. 8E), was detected. Values are means±SEM (N=4). *P<0.001 versus LPS-treated mice. OD, optical density.
In sorbinil-treated mice, however, activation of NF-κB and AP1 decreased by ˜70% at 2 h, and the levels returned to baseline by 24 h. […] These findings are consistent with the downregulation of inflammatory cytokines and chemokines in the serum and heart upon AR inhibition (FIGS. 8A-8D). […] AR inhibition attenuated the phosphorylation of almost all members of this cascade (FIG. 8D-8E). Thus, AR appears to […] the inflammatory cascade by regulating the activation of NF-κB, thereby protecting against cardiovascular collapse in the setting of overwhelming sepsis.

Caco-2 cells [1] = experiment: Western blot of Cox-1 and Cox-2 in Caco-2 cells; type: cell-based, human
Method: (§1) To examine expression of any of Cox-1, Cox-2, phospho-PKC-2, GAPDH, E2F1, Cyclin D1, Cyclin E, and iNOS proteins, Western blot analyses were carried by known methods (15). Equal amounts of protein from cell extracts were subjected to 12% SDS-PAGE followed by transfer of proteins to nitrocellulose filters, probing with the indicated antibodies, and the antigen-antibody complex was detected by enhanced chemiluminescence (Pierce, Piscataway, N.J., USA).

Caco-2 cells [2] = experiment: NF-kB-dependent reporter SEAP expression assay; type: cell-based, human
Method: Caco-2 cells (1.5×10^5 cells/well) were plated in six-well plates and after attachment overnight, were serum-starved in optiMEM medium for 24 h with or without aldose reductase inhibitor, sorbinil (20 μM) and were transiently transfected with pNF-kB-SEAP construct or control plasmid pTALSEAP DNA (Clontech, USA) using the lipofectamine plus reagent. After 6 h of transfection, cells were treated either with 10 ng/ml BFGF or PDGF for 48 h in DMEM medium containing 0.1% FBS. The cell culture medium was then harvested and analyzed for SEAP activity, essentially as described by the manufacturer (Clontech Laboratories, Palo Alto, Calif.), using a 96-well chemiluminescence plate reader and Kodak Image Station 2000R.

Caco-2 cells [3] = experiment: Western blot of phospho-PKC-b2 in Caco-2 cells; type: cell-based, human; settings: BFGF or PDGF
Method: as §1

A549 cells = experiment: Flowcytometric cell cycle analysis, A549; type: cell-based, human; settings: 10% FBS
Method: The Caco-2 and A549 cells were grown separately in 6 well plates at a density of approximately 1.5×10^5 cells/well. Growth-arrested Caco-2 cells were pre-incubated with or without sorbinil 20 μM or carrier for 24 h and then stimulated with either 10 ng/ml BFGF or PDGF for another 24 h. After 24 hrs A549 cells were incubated with or without sorbinil at different concentrations for another 24 h.
The Caco-2 and A549 cells were then washed with PBS and harvested by trypsinization. Cellular DNA was stained with low and high salt solutions. Briefly, cells were resuspended in 250 μl of solution A, low salt stain, containing polyetheleneglycol (30 mg/ml), propidium iodide (0.05 mg/ml), triton-x-100 (1 μl/ml), sodium citrate 4 mM, RNAse A 10 μg/ml and incubated at 37° C. for 20 min followed by the addition of 250 μl of solution B, high salt stain containing 400 mM NaCl instead of 4 mM sodium citrate in solution A, and incubated overnight at 4° C. Cell cycle analysis was performed with a minimum of 10,000 events per analysis by using FACScan flow cytometer (Becton, Dickinson and Co., San Jose, Calif., USA).

BALB/C mice = experiment: Azoxymethane-induced colon carcinogenesis, ACF analysis; type: in vivo, mouse; settings: 9 weeks
Method: Approximately six weeks old mice were divided into 4 groups (5 mice/group). Mice in groups 3 and 4 were treated with azoxymethane in sterile saline, at a dose of 10 mg/kg body weight i.p. once a week, for 3 weeks. In group 4, mice were treated with AR inhibitor sorbinil (25 mg/kg body weight per day) for entire period after 1 week from the first azoxymethane injection. Mice in groups 1 and 2 received equal volumes of sterile saline and sorbinil, respectively. Similarly AR knock out mice also were treated with azoxymethane (10 mg/kg body weight i.p.) once a week for 3 weeks. After 9 weeks all mice were killed by CO2 euthanasia. The colons were removed, flushed with saline and opened from anus to cecum and fixed flat between two pieces of filter paper in 10% buffered formalin for 24 h. Colons were stained with 0.2% methylene blue dissolved in saline and the numbers of aberrant crypts foci (ACF) were counted under a microscope at 200× magnification.
BALB/C mice were injected with azoxymethane or saline and treated with and with out AR inhibitor, sorbinil as described in Example 2. At the early preneoplastic stage (9 weeks after first azoxymethane injection), mice were sacrificed and their colons were removed and analyzed microscopically for the presence of ACF. […]

Substance: (S)-6-fluorospiro[chroman-4,4′-imidazolidine]-2,5′-dione [sorbinil]
- HNE and protein-HNE adduct levels (RAW264.7 macrophages): increased
- ability of GS-DHN to activate NF-κB (RAW264.7 macrophages): had no effect
- effects of HNE/GS-HNE on IKK-a/b phosphorylation and NF-kB translocation (RAW264.7 macrophages): significantly blunted
- LPS-induced NF-κB and cytokine activation (RAW264.7 macrophages; LPS 1 mg/ml, sorbinil 10 mM): significantly decreased
- cardiac iNOS levels (C57BL/6 mice; after LPS): increased only slightly
- phosphorylation of upstream kinases of NF-κB and AP1 (MAPK, IKK, PKC, PLC) in the heart (C57BL/6 mice; after LPS): attenuated
- decrease of cardiac AP1 activation (C57BL/6 mice; at 2 h after LPS): ~70%
- decrease of cardiac NF-κB activation (C57BL/6 mice; at 2 h after LPS): ~70%
- time at which NF-κB and AP1 levels returned to baseline (C57BL/6 mice; mouse, in vivo): ≤ 24 h
- growth factor-induced Cox-2 protein (Caco-2 cells [1]): attenuated
- levels of constitutive Cox-1 protein (Caco-2 cells [1]): not affected
- GS-DHN-induced Cox-2 expression (Caco-2 cells [1]; sorbinil 24 h, GS-DHN-ester 24 h): had no effect
- HNE and GS-HNE-induced Cox-2 expression (Caco-2 cells [1]; sorbinil 24 h, aldehydes 24 h): significantly prevented
- inhibition of BFGF and PDGF-induced NF-κB-dependent reporter (SEAP) activation (Caco-2 cells [2]; sorbinil 20 μM): > 60%
- NF-κB-SEAP activity (Caco-2 cells [2]; sorbinil alone): did not affect
- attenuation of increase in PKC-β2 phosphorylation (Caco-2 cells [3]): > 70%
- percentage of cells in G1 (A549 cells; 25 μM): 58.79%
- percentage of cells in G2 (A549 cells; 25 μM): 6.06%
- percentage of cells in S (A549 cells; 25 μM): 35.14%
- percentage of cells in G1 (A549 cells; 50 μM): 59.24%
- percentage of cells in G2 (A549 cells; 50 μM): 5.47%
- percentage of cells in S (A549 cells; 50 μM): 35.29%
- percentage of cells in G1 (A549 cells; 75 μM): 64.21%
- percentage of cells in G2 (A549 cells; 75 μM): 5.55%
- percentage of cells in S (A549 cells; 75 μM): 30.24%
- percentage of cells in G1 (A549 cells; 100 μM): 65.55%
- percentage of cells in G2 (A549 cells; 100 μM): 4.8%
- percentage of cells in S (A549 cells; 100 μM): 29.75%
- azoxymethane-induced Cox-2 and iNOS expression in mice colons (BALB/C mice): inhibits
- number of average ACF/colon (BALB/C mice; azoxymethane+sorbinil 25 mg/kg body weight per day): 2.4±0.5
